Measurements from patent publication US9661870B2, “Nanogel comprising water-soluble active ingredients” (DSM IP ASSETS B.V., priority 2012, dated 2017).

Key:
[1] = Interaction of folic acid with soy protein, soy polysaccharide or complex nanogel at pH 7.4; free folic acid isolated by ultrafiltration; assay type: physicochemical; details: FA concentration in feed 0.5 mM
Method: Considering the solubility of folic acid, the interaction at pH 7.4 was investigated. The individual protein solution, individual polysaccharide solution, and the protein/polysaccharide complex nanogel solution were adjusted to pH 7.4 first. Then the folic acid, dissolved in 10 mM phosphate buffer pH 7.4, was added and the mixture was incubated under stirring at room temperature overnight. The final protein concentration in the mixture was 4 mg/ml and polysaccharide concentration was 12 mg/ml. The free folic acid in the mixture was isolated by a high-flow ultrafiltration membrane (cutoff molecular weight 3 kDa, MicroconYM-3, Millipore), and was collected in the ultrafiltrate. Individual folic acid solution was also passed through the ultrafiltration membrane; 97% of the folic acid (Table 1) in the ultrafiltrate confirms the recovery of the folic acid. The individual protein, individual polysaccharide, and protein/polysaccharide complex nanogel solutions were also passed through the ultrafiltration membrane; their UV spectra of the ultrafiltrates (FIG. 1) show the absorbance at UV region, indicating small peptides in the ultrafiltrates. The FA concentration in the ultrafiltrate was calculated by deducting the 280 nm absorbance shown in FIG. 1 from the 280 nm absorbance of the ultrafiltrate.

[2] = UV degradation of folic acid (450 nm fluorescence before and after UV radiation); assay type: physicochemical; details: for Degradation degree / IUV/I (ratio of FA fluorescence intensity after UV radiation to before): UV radiation pH 7.4
Excerpt: As mentioned above, folic acid is sensitive to UV radiation. Because of intramolecular fluorescence quenching, folic acid has an extremely low fluorescence quantum yield, approximately 0.005. Pterins, which is formed after the cleavage of the C9-N10 bond in the folic acid molecule, has an increased fluorescence peak around 445 nm. The fluorescence quantum yield of 6-formyl pterin (FPT) is nearly 0.1 and that of pterin-6-carboxylic acid (PCA) is about 0.2. The fluorescence in the region of 445 nm increases with the formation of FPT as a result of the C9-N10 bond cleavage followed by the photo-induced conversion of FPT to PCA [M. K. Off et al., Journal of Photochemistry and Photobiology B: Biology 80 (2005) 47-55].
The UV degradation of folic acid was investigated in this study. The folic acid/protein/polysaccharide nanogel solution at pH 4.0 containing 0.25 or 0.5 mM folic acid was placed in a 7 ml glass bottle at a distance of 30 cm from a UV radiometer (500 w, peak A=365 nm) for 1 h. Individual folic acid dissolved in 10 mM pH 7.4 phosphate buffer with FA concentration of 0.25 or 0.5 mM was also investigated. The mixture of 5 mg/ml protein and 0.25 mM folic acid at pH 7.4, and the mixture of 15 mg/ml polysaccharide and 0.25 mM folic acid at pH 7.4 were also investigated. After the UV radiation, the folic acid/protein/polysaccharide nanogel solution was adjusted to pH 7.4 to release folic acid. The released folic acid in the solution was isolated by ultrafiltration and was analyzed as described below. After 10 and 20 times dilution for 0.25 and 0.5 mM folic acid, respectively, the 450 nm fluorescence intensity of the ultrafiltrate excited at 348 nm was measured.
For individual folic acid solution, after the UV radiation, the fluorescence intensity at 450 nm increases 89 and 85 times when folic acid concentration was 0.25 and 0.5 mM, respectively. The average 87 times of the increase for the fluorescence intensity after the UV radiation indicates the degradation of the folic acid inside the glass bottle. […] Compared with the individual folic acid, the degradation of folic acid reduces to 30% and 22% in the presence of polysaccharide and protein at pH 7.4, respectively. Folic acid/protein/polysaccharide nanogels can effectively protect the folic acid from the degradation at pH 4.0; only 12% of the loaded folic acid was degraded after the same UV radiation. […] The released and isolated folic acid from folic acid/protein/polysaccharide nanogels was radiated by UV light. After the same radiation, the folic acid fluorescence changed as the folic acid solution prepared at pH 7.4 directly.
The UV degradation of folic acid was investigated. Compared with the individual folic acid, the degradation of folic acid reduces to 19% in the presence of pea protein (Table 4). Folic acid/pea protein/polysaccharide nanogels can effectively protect the folic acid from the degradation at pH 4.0; only 13% of the loaded folic acid was degraded after the same UV radiation.

[3] = cited from earlier work
[4] = Table 3, FA in feed 0.25 mM, UV 1 h
[5] = Table 3, FA in feed 0.5 mM, UV 1 h

FA concentration in ultrafiltration [1]	Recovered FA in ultrafiltration [1]	Recovered FA in ultrafiltration ([1]; listed as folic acid)	Degradation degree [2, 4]	IUV/I (ratio of FA fluorescence intensity after UV radiation to before) [2, 4]	IUV/I (ratio of FA fluorescence intensity after UV radiation to before) ([2]; Table 3, FA in feed 0.25 mM, UV 1 h, listed as folic acid)	Degradation degree [2, 5]	IUV/I (ratio of FA fluorescence intensity after UV radiation to before) [2, 5]	IUV/I (ratio of FA fluorescence intensity after UV radiation to before) ([2]; Table 3, FA in feed 0.5 mM, UV 1 h, listed as folic acid)	Degradation degree ([2]; Table 4, FA in feed 0.25 mM)	IUV/I (ratio of FA fluorescence intensity after UV radiation to before) ([2]; Table 4, FA in feed 0.25 mM)	average increase of the fluorescence intensity after the UV radiation ([2]; average of 0.25 and 0.5 mM FA, pH 7.4)	Compound	pKa [3]
0.485 ± 0.01 mM	97 ± 2%	97%	100%	89 ± 3	89	100%	85 ± 2	85	100%	91	87 times	Nc1nc2ncc(CNc3ccc(C(=O)N[C@@H](CCC(=O)O)C(=O)O)cc3)nc2c(=O)[nH]1 [FA, folic acid]	4.7
–	–	–	–	–	–	–	–	–	–	–	–	O=C(O)CCCC[C@@H]1SC[C@@H]2NC(=O)N[C@@H]21 [biotin]	5.33
